Data taken from patent US9771389B2, “Tylosin derivatives and method for preparation thereof” (BAYER ANIMAL HEALTH GMBH, priority 2013, dated 2017).
In brackets after ≈: the same amount, converted by molar mass.

Tests used:
Format in all cases: cell-based
[1] = test system: Staphylococcus aureus; assay: MIC50 mastitis pathogens, broth dilution; conditions: S. aureus, 7 to 12 isolates, 24 hours
Excerpt: (§1) The activity of several compounds against bacterial mastitis pathogens has been tested under in-vitro conditions according to a recognized procedure (CLSI, document […]-A3, 2008). In this test 7 to 12 representative bacteria belonging to 7 bacterial species that typically cause mastitis in dairy cattle, i.e. Staphylococcus aureus, coagulase negative staphylococci (CNS), Streptococcus uberis, Streptococus dysgalactiae, Streptococcus agalactiae, Arcanobacterium pyogenes and Escherichia coli, were exposed to two-fold dilutions of the test compounds. After 24 hours of incubation the concentration that inhibited the growth of this bacteria was determined. It could be shown that all these bacterial mastitis pathogens were highly susceptible to the test compounds.

[2] = test system: Arcanobacterium pyogenes; assay: MIC50 mastitis pathogens, broth dilution; conditions: Trueperella pyogenes, A. pyogenes, 7 to 12 isolates, 24 hours
Excerpt: as §1

[3] = test system: Streptococus dysgalactiae; assay: MIC50 mastitis pathogens, broth dilution; conditions: Str dysgalactiae, 7 to 12 isolates, 24 hours
Excerpt: as §1

[4] = test system: Streptococcus agalactiae; assay: MIC50 mastitis pathogens, broth dilution; conditions: Str agalactiae, 7 to 12 isolates, 24 hours
Excerpt: as §1

[5] = test system: Escherichia coli; assay: MIC50 mastitis pathogens, broth dilution; conditions: E. coli, 7 to 12 isolates, 24 hours
Excerpt: as §1

[6] = test system: coagulase negative staphylococci (CNS); assay: MIC50 mastitis pathogens, broth dilution; conditions: 7 to 12 isolates, 24 hours
Excerpt: as §1

[7] = test system: Streptococcus uberis; assay: MIC50 mastitis pathogens, broth dilution; conditions: Str uberis, 7 to 12 isolates, 24 hours
Excerpt: as §1

[8] = test system: Mannheimia haemolytica, 3 isolates; assay: MIC against Mannheimia haemolytica isolates; conditions: Mannheimia haemolytica, 3ISOLATES, 3 Mannheimia haemolytica isolates; broth dilution method; read-out: Range of minimum inhibitory concentrations (MIC)
Protocol: (§2) Minimal inhibitory concentrations (MICs) were determined against the most prevalent pathogens in cattle (Mannheimia Haemolytica, 3 isolates) and swine (A. pleuropneumoniae, 6 isolates). In addition the activity of several compounds was tested against two bacterial species, i.e. Mannheimia haemolytica and Actinobacillus pleuropneumoniae, which are considered as the most important bacterial respiratory pathogens in cattle and swine, respectively.

[9] = test system: Actinobacillus pleuropneumoniae, 6 isolates; assay: MIC against Actinobacillus pleuropneumoniae isolates; conditions: 6ISOLATES; 6 Actinobacillus pleuropneumoniae isolates; broth dilution method; read-out: Range of minimum inhibitory concentrations (MIC)
Protocol: as §2

SMILES	MIC50 [1] [µg/mL]	MIC50 [2] [µg/mL]	MIC50 [3] [µg/mL]	MIC50 [4] [µg/mL]	MIC50 [5] [µg/mL]	MIC50 [6] [µg/mL]	MIC50 [7] [µg/mL]	MIC [9] [µg/mL]	MIC [8] [µg/mL]
CC[C@H]1OC(=O)C[C@@H](O)[C@H](C)[C@@H](O[C@@H]2OC(C)[C@@H](O)C(N(C)C)C2O)[C@@H](CCNCCn2cc(-c3cnc4ccccc4c3)nn2)C[C@@H](C)C(=O)/C=C/C(C)=C/[C@@H]1CO (stereo partly shown) [YT732]	0.5 (≈ 0.609 µM)	0.008 (≈ 0.00974 µM)	0.12 (≈ 0.146 µM)	0.03 (≈ 0.0365 µM)	8 (≈ 9.74 µM)	0.25 (≈ 0.304 µM)	0.03 (≈ 0.0365 µM)	2 to 4 (≈ 2.44 to 4.87 µM)	1 to 4 (≈ 1.22 to 4.87 µM)
CC[C@H]1OC(=O)C[C@@H](O)[C@H](C)[C@@H](O[C@@H]2OC(C)[C@@H](O)C(N(C)C)C2O)[C@@H](CCNCc2cn(-c3cnc4ccccc4c3)nn2)C[C@@H](C)C(=O)/C=C/C(C)=C/[C@@H]1CO (stereo partly shown) [YT739]	0.5 (≈ 0.62 µM)	0.008 (≈ 0.00991 µM)	0.12 (≈ 0.149 µM)	0.03 (≈ 0.0372 µM)	8 (≈ 9.91 µM)	0.25 (≈ 0.31 µM)	0.03 (≈ 0.0372 µM)		
CC[C@H]1OC(=O)C[C@@H](O)[C@H](C)[C@@H](O[C@@H]2OC(C)[C@@H](O)C(N(C)C)C2O)[C@@H](CCN(Cc2ccccc2)Cc2cn(-c3ccc4ccccc4c3)nn2)C[C@@H](C)C(=O)/C=C/C(C)=C/[C@@H]1CO (stereo partly shown) [YT762]	1 (≈ 1.12 µM)	0.015 (≈ 0.0167 µM)	0.12 (≈ 0.134 µM)	0.03 (≈ 0.0335 µM)	8 (≈ 8.93 µM)	0.25 (≈ 0.279 µM)	0.03 (≈ 0.0335 µM)		

The next lines start with results.

MIC50 [1] [µg/mL]	MIC50 [2] [µg/mL]	MIC50 [3] [µg/mL]	MIC50 [4] [µg/mL]	MIC50 [5] [µg/mL]	MIC50 [6] [µg/mL]	MIC50 [7] [µg/mL]	MIC [9] [µg/mL]	SMILES	MIC [8] [µg/mL]
0.25 (≈ 0.281 µM)	≤ 0.015	≤ 0.015	≤ 0.015	4 (≈ 4.5 µM)	0.25 (≈ 0.281 µM)	≤ 0.015		CC[C@H]1OC(=O)C[C@@H](O)[C@H](C)[C@@H](O[C@@H]2OC(C)[C@@H](O)C(N(C)C)C2O)[C@@H](CCN(C)Cc2cn(-c3cnc4ccccc4c3)nn2)C[C@@H](C)C(=O)/C=C/C(C)=C/[C@@H]1CN1CCCCC1 (stereo partly shown) [YT769]	
0.25 (≈ 0.295 µM)	≤ 0.015	0.03 (≈ 0.0354 µM)	≤ 0.015	4 (≈ 4.72 µM)	0.25 (≈ 0.295 µM)	0.03 (≈ 0.0354 µM)		CC[C@H]1OC(=O)C[C@@H](O)[C@H](C)[C@@H](O[C@@H]2OC(C)[C@@H](O)C(N(C)C)C2O)[C@@H](CCN(C)Cc2cn(-c3cnc4ccccc4c3)nn2)C[C@@H](C)C(=O)/C=C/C(C)=C/[C@@H]1CN(C)C (stereo partly shown) [YT770]	
